Results as given in patent US9988341B2, “Bacterial topoisomerase inhibitors and use thereof” (THE FLORIDA INTERNATIONAL UNIVERSITY BOARD OF TRUSTEES, priority 2016, dated 2018).
Read-outs that look alike come from different tables or passages of the source.

Legend:
[1] = molecular target: T1, Human topoisomerase I (Homo sapiens, UniProt P11387); experiment: Human topoisomerase I relaxation inhibition assay; type: biochemical
T1 construct: purchased TopoGen
T1 sequence (P11387 1-765): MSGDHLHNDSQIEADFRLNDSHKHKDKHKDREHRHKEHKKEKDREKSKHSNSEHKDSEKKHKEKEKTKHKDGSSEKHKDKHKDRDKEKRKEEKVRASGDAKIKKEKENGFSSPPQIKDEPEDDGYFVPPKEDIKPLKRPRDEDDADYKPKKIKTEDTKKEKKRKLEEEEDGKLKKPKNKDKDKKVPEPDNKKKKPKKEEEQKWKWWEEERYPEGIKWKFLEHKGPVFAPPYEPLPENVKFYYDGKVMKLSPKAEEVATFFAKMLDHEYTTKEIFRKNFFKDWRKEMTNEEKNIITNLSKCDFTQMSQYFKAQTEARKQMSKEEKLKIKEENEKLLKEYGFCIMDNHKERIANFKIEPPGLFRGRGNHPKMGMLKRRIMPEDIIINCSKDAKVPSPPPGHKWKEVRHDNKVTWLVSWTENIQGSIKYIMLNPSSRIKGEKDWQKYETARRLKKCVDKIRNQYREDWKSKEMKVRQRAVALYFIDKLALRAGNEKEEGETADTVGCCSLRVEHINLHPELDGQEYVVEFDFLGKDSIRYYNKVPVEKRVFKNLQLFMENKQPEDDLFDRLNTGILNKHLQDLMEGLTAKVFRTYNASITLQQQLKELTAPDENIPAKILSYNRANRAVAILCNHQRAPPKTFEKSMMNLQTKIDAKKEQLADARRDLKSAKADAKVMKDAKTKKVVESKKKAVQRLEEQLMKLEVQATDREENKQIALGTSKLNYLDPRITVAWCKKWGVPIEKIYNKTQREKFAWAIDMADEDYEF
Description: Human topoisomerase I (obtained from TopoGen) relaxation assays were carried out with 0.5 U of enzyme in reaction buffer supplied by the manufacturer. The enzyme was mixed with the indicated concentration of compound dissolved before 160 ng of supercoiled pBAD/Thio plasmid DNA was added in the same buffer, for a final volume of 20 μL. Following incubation at 37° C. for 30 minutes, the reactions were terminated with a buffer containing 5% SDS, 0.25% bromophenol blue, and 25% glycerol, and analyzed by agarose gel electrophoresis.

[2] = molecular target: M. tuberculosis topoisomerase I (Mycobacterium tuberculosis, UniProt P9WG49); experiment: biochemical; settings: Table 6; read-out: IC50 M. tuberculosis topoisomerase I
Sequence of M. tuberculosis topoisomerase I (P9WG49 whole entry): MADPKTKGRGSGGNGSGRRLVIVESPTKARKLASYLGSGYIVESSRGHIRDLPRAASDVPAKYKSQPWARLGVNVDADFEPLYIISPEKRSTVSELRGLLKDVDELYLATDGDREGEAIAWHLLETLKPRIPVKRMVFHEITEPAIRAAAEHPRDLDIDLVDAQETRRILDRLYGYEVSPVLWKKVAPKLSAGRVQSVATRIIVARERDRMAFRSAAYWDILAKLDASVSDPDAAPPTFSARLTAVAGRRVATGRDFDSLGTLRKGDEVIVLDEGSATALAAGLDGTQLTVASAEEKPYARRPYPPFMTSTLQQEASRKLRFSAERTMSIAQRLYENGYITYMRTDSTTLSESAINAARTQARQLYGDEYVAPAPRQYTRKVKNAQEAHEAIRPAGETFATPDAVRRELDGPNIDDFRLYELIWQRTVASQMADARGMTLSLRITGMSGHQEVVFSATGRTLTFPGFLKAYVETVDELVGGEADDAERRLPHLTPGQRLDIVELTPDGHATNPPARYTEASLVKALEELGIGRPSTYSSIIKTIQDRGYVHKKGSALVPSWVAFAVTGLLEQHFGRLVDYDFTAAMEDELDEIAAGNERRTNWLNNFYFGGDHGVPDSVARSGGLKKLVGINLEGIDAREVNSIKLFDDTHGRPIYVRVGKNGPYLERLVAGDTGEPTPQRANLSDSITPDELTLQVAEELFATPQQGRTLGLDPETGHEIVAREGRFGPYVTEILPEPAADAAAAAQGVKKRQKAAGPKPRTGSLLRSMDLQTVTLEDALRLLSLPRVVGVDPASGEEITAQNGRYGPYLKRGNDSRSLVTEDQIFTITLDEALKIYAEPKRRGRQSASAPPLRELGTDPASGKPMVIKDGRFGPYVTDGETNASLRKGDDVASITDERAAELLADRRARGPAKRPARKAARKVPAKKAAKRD

[3] = molecular target: T2, Human Topoisomerase IIα (Homo sapiens, UniProt P11388); experiment: Human topoisomerase IIα decatenation inhibition assay; type: biochemical
T2 construct: purchased TopoGen
T2 sequence (P11388 whole entry): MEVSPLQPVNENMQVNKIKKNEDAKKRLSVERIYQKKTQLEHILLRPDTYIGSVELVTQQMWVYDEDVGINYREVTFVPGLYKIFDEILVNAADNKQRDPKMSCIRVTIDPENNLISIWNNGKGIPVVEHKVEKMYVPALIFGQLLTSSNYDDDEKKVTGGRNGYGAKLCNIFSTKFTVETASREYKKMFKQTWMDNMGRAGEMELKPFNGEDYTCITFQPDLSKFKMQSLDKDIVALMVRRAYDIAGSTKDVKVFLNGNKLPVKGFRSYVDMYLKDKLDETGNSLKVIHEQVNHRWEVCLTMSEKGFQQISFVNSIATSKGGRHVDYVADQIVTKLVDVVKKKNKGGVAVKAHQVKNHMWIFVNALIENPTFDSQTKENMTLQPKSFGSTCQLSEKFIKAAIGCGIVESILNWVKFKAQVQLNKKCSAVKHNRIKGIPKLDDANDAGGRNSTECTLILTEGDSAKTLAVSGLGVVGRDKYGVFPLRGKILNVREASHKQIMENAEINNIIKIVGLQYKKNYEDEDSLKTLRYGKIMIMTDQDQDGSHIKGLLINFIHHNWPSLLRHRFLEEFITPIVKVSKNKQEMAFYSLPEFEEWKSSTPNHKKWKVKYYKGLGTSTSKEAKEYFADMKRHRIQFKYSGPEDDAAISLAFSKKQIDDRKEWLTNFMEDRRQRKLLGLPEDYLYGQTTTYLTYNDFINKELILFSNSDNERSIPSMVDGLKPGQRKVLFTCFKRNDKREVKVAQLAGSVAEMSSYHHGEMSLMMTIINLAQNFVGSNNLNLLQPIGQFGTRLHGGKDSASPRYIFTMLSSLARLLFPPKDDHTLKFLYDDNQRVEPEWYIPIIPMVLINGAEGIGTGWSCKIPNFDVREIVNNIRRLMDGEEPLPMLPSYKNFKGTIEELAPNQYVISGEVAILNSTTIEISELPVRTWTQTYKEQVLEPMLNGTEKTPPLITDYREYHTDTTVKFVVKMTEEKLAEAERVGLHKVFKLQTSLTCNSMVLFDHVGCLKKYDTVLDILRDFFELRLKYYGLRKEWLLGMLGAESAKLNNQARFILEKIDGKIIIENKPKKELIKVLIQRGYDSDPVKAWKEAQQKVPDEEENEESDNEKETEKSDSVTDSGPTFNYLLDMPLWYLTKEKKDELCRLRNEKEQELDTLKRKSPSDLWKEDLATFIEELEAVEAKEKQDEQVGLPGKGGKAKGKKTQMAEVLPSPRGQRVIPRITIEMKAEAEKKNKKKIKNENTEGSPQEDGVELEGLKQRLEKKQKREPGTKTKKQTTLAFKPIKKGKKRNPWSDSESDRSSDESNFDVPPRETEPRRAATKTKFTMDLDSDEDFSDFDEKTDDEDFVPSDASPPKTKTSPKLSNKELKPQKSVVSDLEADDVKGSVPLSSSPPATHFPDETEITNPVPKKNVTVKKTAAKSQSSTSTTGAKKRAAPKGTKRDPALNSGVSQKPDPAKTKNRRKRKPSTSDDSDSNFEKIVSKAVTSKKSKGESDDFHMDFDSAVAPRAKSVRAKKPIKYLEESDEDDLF
Description: Human Topoisomerase IIα (obtained from TopoGen) assays were carried out by adding the compounds to 180 ng of kinetoplast DNA (kDNA) in the buffer supplied by the manufacturer before the addition of 2 U of the enzyme. The samples were incubated for 15 minutes at 37° C. before the addition of 4 μl of stop buffer containing 5% sarkosyl, 0.0025% bromophenol blue, and 25% glycerol. The reactions were then analyzed by electrophoresis in 1% agarose gels containing 0.5 μg ml^−1 ethidium bromide before being photographed under UV light.

[4] = molecular target: T3, E. coli DNA gyrase (Escherichia coli, UniProt P0AES4+P0AES6); experiment: DNA gyrase supercoiling inhibition assay; type: biochemical
T3 construct: purchased New England BioLabs
T3 sequence (P0AES4 whole entry, one chain of several): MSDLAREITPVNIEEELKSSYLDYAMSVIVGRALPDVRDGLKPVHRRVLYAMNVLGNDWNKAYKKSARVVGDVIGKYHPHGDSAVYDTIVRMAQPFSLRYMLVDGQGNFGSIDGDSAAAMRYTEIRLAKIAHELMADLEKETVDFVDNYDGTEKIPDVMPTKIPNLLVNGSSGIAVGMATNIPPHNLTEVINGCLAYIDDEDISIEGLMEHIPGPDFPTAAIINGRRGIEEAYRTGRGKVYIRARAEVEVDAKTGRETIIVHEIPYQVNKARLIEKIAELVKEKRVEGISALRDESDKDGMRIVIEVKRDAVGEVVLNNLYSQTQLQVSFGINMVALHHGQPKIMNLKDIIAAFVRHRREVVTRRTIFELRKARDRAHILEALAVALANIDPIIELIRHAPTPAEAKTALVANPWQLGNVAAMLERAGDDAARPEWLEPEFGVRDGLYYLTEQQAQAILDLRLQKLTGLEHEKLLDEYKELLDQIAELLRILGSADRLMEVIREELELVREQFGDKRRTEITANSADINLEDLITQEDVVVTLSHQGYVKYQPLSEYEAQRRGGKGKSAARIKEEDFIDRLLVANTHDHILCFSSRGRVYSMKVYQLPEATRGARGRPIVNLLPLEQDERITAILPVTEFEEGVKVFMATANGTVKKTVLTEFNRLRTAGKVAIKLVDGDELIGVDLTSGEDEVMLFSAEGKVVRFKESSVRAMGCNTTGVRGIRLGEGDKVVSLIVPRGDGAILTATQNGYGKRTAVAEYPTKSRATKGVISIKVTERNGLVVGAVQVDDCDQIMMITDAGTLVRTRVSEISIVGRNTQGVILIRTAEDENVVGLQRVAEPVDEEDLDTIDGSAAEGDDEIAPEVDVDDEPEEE
Description: DNA gyrase (obtained from New England BioLabs) supercoiling assays were carried out by mixing the compounds with 2 U of the enzyme in reaction buffer supplied by the manufacturer, followed by the addition of 300 ng of relaxed covalently closed circular DNA was for a final reaction volume of 20 μL. The samples were incubated at 37° C. for 30 minutes before being terminated by the addition of a buffer containing 5% SDS, 0.25% bromophenol blue, and 25% glycerol. The reactions were then analyzed by agarose gel electrophoresis.

[5] = molecular target: E. coli topoisomerase I (Escherichia coli, UniProt P06612); experiment: Bacterial topoisomerase I relaxation activity inhibition assay (EcTopI); type: biochemical; settings: Table 1; individual compounds tested as crude material; read-out: EcTopI relaxation inhibition (IC50)
Sequence of E. coli topoisomerase I (P06612 whole entry): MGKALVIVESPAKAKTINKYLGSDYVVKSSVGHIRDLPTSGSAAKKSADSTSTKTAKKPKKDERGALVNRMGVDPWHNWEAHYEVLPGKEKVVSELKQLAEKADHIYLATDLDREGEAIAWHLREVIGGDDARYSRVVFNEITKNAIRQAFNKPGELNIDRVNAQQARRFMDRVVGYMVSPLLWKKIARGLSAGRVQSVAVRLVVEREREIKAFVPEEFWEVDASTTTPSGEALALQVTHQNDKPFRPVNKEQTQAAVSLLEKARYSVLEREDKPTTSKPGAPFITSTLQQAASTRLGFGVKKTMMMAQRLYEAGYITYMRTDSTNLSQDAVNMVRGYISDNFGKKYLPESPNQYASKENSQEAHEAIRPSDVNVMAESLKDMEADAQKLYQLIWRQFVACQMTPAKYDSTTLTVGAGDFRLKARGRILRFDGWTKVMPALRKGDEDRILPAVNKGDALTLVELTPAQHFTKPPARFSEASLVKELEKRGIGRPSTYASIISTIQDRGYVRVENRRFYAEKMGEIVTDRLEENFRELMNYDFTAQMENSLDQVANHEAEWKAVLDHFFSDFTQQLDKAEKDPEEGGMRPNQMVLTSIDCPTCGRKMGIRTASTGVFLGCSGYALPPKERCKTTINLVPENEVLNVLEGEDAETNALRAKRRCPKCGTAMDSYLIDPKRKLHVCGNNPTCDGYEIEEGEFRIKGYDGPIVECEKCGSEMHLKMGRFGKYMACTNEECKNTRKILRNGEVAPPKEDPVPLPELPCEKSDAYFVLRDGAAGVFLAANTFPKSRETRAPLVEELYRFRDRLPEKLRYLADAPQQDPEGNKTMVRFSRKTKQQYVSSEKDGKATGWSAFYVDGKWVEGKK
Description: The relaxation activity of bacterial topoisomerase I was assayed in a buffer containing 10 mM Tris-HCl, pH 8.0, 50 mM NaCl, 0.1 mg/mL gelatin, and 0.5 mM MgCl2. One microliter of the compounds dissolved in DMF (dimethylformamide) or solvent alone was mixed with 10 μl of the reaction buffer containing 10 ng of enzyme before the addition of 9 μl of reaction buffer containing 160 ng of supercoiled pBAD/Thio plasmid DNA purified by cesium chloride gradient as substrate. Following incubation at 37° C. for 30 min, the reactions were terminated by the addition of 4 μl of 50% glycerol, 50 mM EDTA, and 0.5% (v/v) bromophenol blue, and analyzed by agarose gel electrophoresis. The gels were stained in ethidium bromide and photographed under UV light.

[6] = supercoiling, read-out: IC50 E. coli DNA gyrase

| SMILES | IC50 [5] [µM] | also measured |
| --- | --- | --- |
| CNCCC[C@@H](CN[C@@H](CN)Cc1ccc2ccccc2c1)NCCc1cccc2ccccc12 [Compound 2580-33] | – | IC50 [1]: > 85 µM; IC50 [2]: 8 µM; IC50 [3]: > 85 µM; IC50 [4]: > 85 µM |
| CNCCC[C@H](CN[C@H](CN)CC1CCCCC1)NCC1CCC(C(C)(C)C)CC1 (some centres unmarked) [Compound 2471-56] | 160 | – |
| CCCC[C@@H](CN[C@H](CN)CCCN)NCCCc1ccc(O)c(O)c1 [Compound 2471-23] | > 160 | – |
| CNCCCC[C@H](CN)NC[C@H](CCCNC(=N)N)NCCCc1ccc(O)c(O)c1 [Compound 2471-29] | 120 | – |
| CNCCCC[C@@H](CN[C@H](CN)CCCN)NCCCc1cccc(Br)c1 [Compound 2471-13] | 160 | – |
| CNCCC[C@H](CN[C@H](CN)CC1CCCCC1)NCCCCCC1CCCCC1 [Compound 2471-57] | 160 | – |
| CCC[C@H](CN[C@H](CN)CCCN)NCCCc1ccc(O)c(O)c1 [Compound 2471-20] | > 160 | – |
| CCCC[C@H](CN[C@@H](CN)CC1CCCCC1)NCCCCCC1CCCCC1 [Compound 2471-63] | 160 | – |
| CCCC[C@@H](CN[C@@H](CN)CCCCNC)NCCCc1cccc(Br)c1 [Compound 2471-34] | 160 | – |
| CNCCCC[C@@H](CN)NC[C@H](CCCCNC)NCCCc1cccc(Br)c1 [Compound 2471-1] | 160 | – |
| CCCC[C@@H](CN[C@@H](CN)CCCCNC)NCCCc1ccc(O)c(O)c1 [Compound 2471-35] | > 160 | – |
| CNCCC[C@H](CN[C@@H](CN)CC1CCCCC1)NCCCc1cc(C(F)(F)F)cc(C(F)(F)F)c1 [Compound 2471-67] | 160 | – |
| CCCC[C@H](CN[C@@H](CN)CC1CCCCC1)NCC1CCC(C(C)(C)C)CC1 (some centres unmarked) [Compound 2471-62] | 160 | – |
| CCC[C@H](CN[C@H](CN)CCCCNC)NCCCc1cccc(Br)c1 [Compound 2471-7] | 160 | – |
| CNCCC[C@@H](CN[C@H](CN)CC1CCCCC1)NCCCCCC1CCCCC1 [Compound 2471-54] | > 160 | – |
| CNCCC[C@@H](CN[C@H](CN)CC1CCCCC1)NCC1CCC(C(C)(C)C)CC1 (some centres unmarked) [Compound 2471-53] | > 160 | – |
| CCCC[C@@H](CN[C@H](CN)CCCCNC)NCCCc1ccc(O)c(O)c1 [Compound 2471-11] | > 160 | – |
| CNCCCC[C@@H](CN)NC[C@H](CCCNC(=N)N)NCCCc1ccc(O)c(O)c1 [Compound 2471-5] | > 160 | – |
| CNCCC[C@H](CN[C@@H](CN)CC1CCCCC1)NCC1CCC(C(C)(C)C)CC1 (some centres unmarked) [Compound 2471-68] | 160 | – |
| CCC[C@H](CN[C@H](CN)CCCN)NCCCc1cccc(Br)c1 [Compound 2471-19] | 160 | – |
| CC(C)(C)C1CCC(CN[C@H](CN[C@@H](CN)CC2CCCCC2)Cc2ccc(F)cc2)CC1 (some centres unmarked) [Compound 2471-71] | 40 | – |

| SMILES | IC50 [5] [µM] | also measured |
| --- | --- | --- |
| CCC[C@H](CN[C@H](CN)CCCCNC)NCCCc1ccc(O)c(O)c1 [Compound 2471-8] | > 160 | – |
| N=C(N)NCCC[C@@H](CN[C@H](CN)CCCN)NCCCc1ccc(O)c(O)c1 [Compound 2471-17] | > 160 | – |
| CNCCCC[C@@H](CN[C@H](CN)CCCN)NCCCc1ccc(O)c(O)c1 [Compound 2471-14] | > 160 | – |
| CCCC[C@H](CN[C@H](CN)CC1CCCCC1)NCC1CCC(C(C)(C)C)CC1 (some centres unmarked) [Compound 2471-50] | 160 | – |
| CNCCC[C@@H](CN[C@H](CN)CC1CCCCC1)NCCCc1cc(C(F)(F)F)cc(C(F)(F)F)c1 [Compound 2471-52] | 160 | – |
| CNCCCC[C@H](CN)NC[C@H](CCCCNC)NCCCc1cccc(Br)c1 [Compound 2471-25] | 160 | – |
| CNCCCC[C@@H](CN)NC[C@H](CCCNC(=N)N)NCCCc1cccc(Br)c1 [Compound 2471-4] | 160 | – |
| CCCC[C@@H](CN[C@H](CN)CCCCNC)NCCCc1cccc(Br)c1 [Compound 2471-10] | 160 | – |
| CCCC[C@H](CN[C@H](CN)CC1CCCCC1)NCCCCCC1CCCCC1 [Compound 2471-51] | 160 | – |
| CCC[C@H](CN)NC[C@@H](CCCNC(=N)N)NCCc1cccc2ccccc12 [Compound 2580-3] | – | IC50 [1]: > 80 µM; IC50 [2]: 6 µM; IC50 [3]: > 80 µM; IC50 [4, 6]: > 80 µM |
| CCCC[C@H](CN[C@@H](CN)CCCNC)NCCc1cccc2ccccc12 [Compound 2580-18] | – | IC50 [1]: > 100 µM; IC50 [2]: 3.2 µM; IC50 [3]: > 100 µM; IC50 [4, 6]: > 100 µM |
| CNCCC[C@H](CN)NC[C@@H](CCCNC(=N)N)NCCc1cccc2ccccc12 [Compound 2580-15] | – | IC50 [1]: > 90 µM; IC50 [2]: 0.73 µM; IC50 [3]: > 90 µM; IC50 [4, 6]: > 90 µM |
| CCC[C@H](CN[C@@H](CN)CCCCNC)NCCCc1ccc(O)c(O)c1 [Compound 2471-32] | > 160 | – |
| CNCCC[C@@H](CN[C@@H](CN)CC1CCCCC1)NCCCCCC1CCCCC1 [Compound 2471-66] | 160 | – |
| CNCCC[C@H](CN)NC[C@@H](Cc1ccc2ccccc2c1)NCCc1cccc2ccccc12 [Compound 2580-24] | – | IC50 [1]: > 85 µM; IC50 [2]: 8 µM; IC50 [3]: > 85 µM; IC50 [4]: > 85 µM |
| CCCC[C@@H](CN[C@H](CN)CCCN)NCCCc1cccc(Br)c1 [Compound 2471-22] | 160 | – |
| CNCCC[C@H](CN[C@H](CN)CC1CCCCC1)NCCCc1cc(C(F)(F)F)cc(C(F)(F)F)c1 [Compound 2471-55] | 160 | – |
| CNCCC[C@@H](CN[C@@H](CN)CC1CCCCC1)NCC1CCC(C(C)(C)C)CC1 (some centres unmarked) [Compound 2471-65] | 160 | – |
| CNCCC[C@@H](CN[C@@H](CN)CC1CCCCC1)NCCCc1cc(C(F)(F)F)cc(C(F)(F)F)c1 [Compound 2471-64] | 160 | – |
| CCC[C@H](CN[C@@H](CN)CCCCNC)NCCCc1cccc(Br)c1 [Compound 2471-31] | 160 | – |
